Series [1] deals with Rat hippocampal neurons. The experiment in a line: Neurite outgrowth assay. It is filed as cell-based.
The test system of series [2] is Rat hippocampal neurons. The experiment in a line: Synaptogenesis assay. It is filed as cell-based. The settings on record: for Significant increase in: Synapses: Table 4 study.
For series [3], the system named is Rat primary cortical neuron cultures. It counts as cell-based. To be noted: for Significance of neuroprotection vs 1 uM LPS: 24 h LPS; for protection of primary neurons from LPS-stimulated inflammatory toxicity: at at least one dose tested.
In series [4] the test system is patient in need of treatment for long COVID. Description: Treating long COVID (Example 1), clinical screening assessments. It is filed as in vivo, human. The settings on record: patients with long COVID. On the procedure: A Compound of Formula (I), such as Compound 2a or Compound 1a, or a pharmaceutically acceptable salt thereof, is administered orally to a patient in need of treatment for long COVID.
In some embodiments, a patient in need of treatment for long COVID is assessed with ADCS-ADL23. The ADCS-ADL23 (Galasko, 1997) is a 23-item assessment of functional impairment in terms of activities of daily living administered to the support person/caregiver. It comprises 23 questions about the subject's involvement and level of performance across items representing daily living. The questions range from basic to instrumental activities of daily living. Each item is rated from the highest level of independent performance to complete loss. The total score range is from 0 to 78, with lower scores indicating greater functional impairment.
A patient in need of treatment for long COVID is assessed with ERP P300. ERP P300 is a quantitative, unbiased, non-invasive method of recording task-related brain processing speed, elicited by external stimuli, e.g., an oddball auditory stimulus, and is a well-established functional biomarker, particularly of working memory access (Ally, 2006). ERP P300 is characterized by a stereotyped series of voltage deflections occurring after the respective odd tone to be counted, with early features (<100 msec) corresponding to unconscious sensory transmission (auditory cortex, N100), and later features produced by cognitive processing in the ventral attentional network, i.e., P300, referring to the large positive deflection at roughly 300 msec in healthy adults (young or elderly). The P300 latency is sensitive to detecting reduced synaptic transmission related to cognitive decline in AD patients and other dementias (Olichney, 2011).

Series [5] deals with scopolamine-induced spatial memory deficits in rats. Description: Scopolamine-induced spatial memory deficit, Morris water maze (3 mg/kg scopolamine, 8 days). It counts as in vivo, rat.
The test system of series [6] is THP1-differentiated macrophages. It counts as cell-based, human. Set-up: key to Significant reduction in IL-6 / Significant reduction in TNF-α / Significant reduction in IL-1β: NS: indicates a non-significant reduction in the indicated cytokine; +: indicates a p value<0.05 in Tukey post test; ++: indicates a p value<0.01 in Tukey post test. To be noted: for Significant reduction in IL-1β / Significant reduction in IL-6 / Significant reduction in TNF-α: 24 hrs LPS.

Like-named read-outs stand apart in the source and are kept apart here.

For `CCC(C)CN1CC2N(C(=O)c3ccc(OC(F)F)cc3)CCC(=O)N2[C@@H](C)C1=O` (stereo partly drawn) [Compound 2a], the “neurite length / extension of neurites (in words)” value in the series with Rat hippocampal neurons [1] is on record as “increase neurite length at a concentration of 10 nM”. Further, the “Significant increase in: Neurite length” value with Rat hippocampal neurons [1] (10 nM, Table 4 study) was “++++ (++++ = p < 0.0001)”. The “synapse counts (in words)” value in the series on Rat hippocampal neurons [2] is given as “increase synapse counts at all concentrations tested”. The “Significant increase in: Synapses” value in the series on Rat hippocampal neurons [2] (1 nM), in the series on Rat hippocampal neurons [2] (10 nM) and in the series on Rat hippocampal neurons [2] (100 nM) was “++++ (++++ = p < 0.0001)” in each case. Moreover, the “Significance of neuroprotection vs 1 uM LPS” value in series [3] (0.1 nM), in series [3] (1 nM), in series [3] (10 nM), in series [3] (100 nM) and in series [3] (1 μM) was “+++ (+++ indicates p<0.001)” in each case. In addition, the “protection of primary neurons from LPS-stimulated inflammatory toxicity” value in series [3] is reported as “protected primary neurons from LPS-stimulated inflammatory toxicity”. Moreover, in series [4], the “patient outcome as measured by one or more of the screening assessments” value is “reduces the rate of decline, stabilizes, or improves patient outcome”. The safety and tolerability result in series [4] was “acceptable safety and tolerability”. The “Cognitive Improvement” value in series [5] (0.1 mg/kg PO) is on record as “− (− indicates post-test p-value above 0.06)”; in series [5] (1 mg/kg PO) it was “+++ (+++ indicates post-test p-value below 0.01)”; in series [5] (10 mg/kg PO), “− (− indicates post-test p-value above 0.06)”.
Regarding `CCC(C)CN1CC2N(Cc3ccc(OC(F)F)cc3)CCC(=O)N2[C@@H](C)C1=O` (stereo partly drawn) [Compound 6a], the “Significance of neuroprotection vs 1 uM LPS” value in series [3] (0.1 nM), in series [3] (1 nM), in series [3] (10 nM), in series [3] (100 nM) and in series [3] (1 μM) was “+++ (+++ indicates p<0.001)” each time. Also, in series [3], the “protection of primary neurons from LPS-stimulated inflammatory toxicity” value is listed as “protected primary neurons from LPS-stimulated inflammatory toxicity”. For the same compound, the “Significant reduction in IL-1β” value in series [6] (0.1 nM) was “NS”; in series [6] (10 nM), “NS”; in series [6] (1000 nM), “+ (indicates a p value<0.05 in Tukey post test)”. Also, the “Significant reduction in IL-6” value in series [6] (0.1 nM), in series [6] (10 nM) and in series [6] (1000 nM) was “NS” each time. Besides, the “Significant reduction in TNF-α” value is “NS” in series [6] (0.1 nM), “NS” in series [6] (10 nM) and “+ (indicates a p value<0.05 in Tukey post test)” in series [6] (1000 nM). Moreover, in series [6] (at at least one tested dose), the “expression of IL-1β (in words)” value was “significantly reduced the expression of IL-1β and TNF-α”. Also, in series [6] (at at least one tested dose), the “expression of TNF-α (in words)” value is “significantly reduced the expression of IL-1β and TNF-α”. Further, the “Cognitive Improvement” value was “− (− indicates post-test p-value above 0.06)” in series [5] (1 mg/kg PO); “++ (++ indicates post-test p-value between 0.05 and 0.01)” in series [5] (10 mg/kg PO).

These data come from patent publication US20250161308A1, “Methods of Treating Covid-Related Disorders” (priority 2022, published 2025).
